Results as given in PMC3156899 (Clinical cancer research : an official journal of the …, 2011).

Test system: pp65#23-specific CD4+ T cells
Assay: Cytokine ELISPOT / ELISA of pp65#23-specific CD4+ T cells
Type: cell-based, human

Substance: 221DQYVKVYLESFCEDVPSGKL240 [pp65#23]
- IL-10 and IL-17 secretion (IL-10 ELISPOT, IL-17 ELISA (limit of detection 15.0 pg/ml)): no IL-10 or IL-17 was detected
- IFN-γ and IL-4 secretion (ELISPOT) (antigen-specific, T2/DP4 pulsed with peptide, Figure 3B): predominantly secreted IFN-γ and much less IL-4
- IL-2 production (ELISPOT) (upon stimulation, Figure 3B): produced IL-2
